The results in this text go back to PubChem BioAssay (NCI).

Some test systems named below: A549 NSCLC; HCC-2998 colon; HCT-116 colon; IGROV1 ovarian; MALME-3M melanoma; MCF7 breast; MDA-N; OVCAR-3 ovarian; OVCAR-8 ovarian; UO-31 renal.
Holding throughout (experiment): growth of human tumour cells (NCI), 48 h

Several values for one entry are separate records, joined by “and”; a condition that tells them apart may be missing. Equal values may be shown once.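 Test compounds were applied to cells in 96-well plates for 48 hours at 5 doses. GI50 marks 50% less growth. TGI: total growth inhibition.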

Consider `Cn1c2ccc3cc2c(=S)c2cc(ccc21)OCCOCCOCCOCCOCCOCCO3`, for which the TGI with A549 NSCLC, in the assay with HCC-2998 colon, in the assay on HCT-116 colon, with IGROV1 ovarian, in the assay on MALME-3M melanoma and in the assay on MCF7 breast was greater than 10 µM throughout. The TGI in the assay with MDA-N, in the assay with OVCAR-3 ovarian, in the assay with OVCAR-8 ovarian and with UO-31 renal was greater than 10 µM in each case.

`Cc1cc(-c2nc3ccc(F)cc3s2)ccc1NC(=O)[C@H](C)N`: the TGI with A549 NSCLC came to 24.6 µM; in the assay with HCC-2998 colon, 4.5 µM; in the assay with HCT-116 colon, 11.4 µM; in the assay on IGROV1 ovarian, 20 µM; in the assay on MALME-3M melanoma, 36.2 µM; with MCF7 breast it was 13.1 µM. Moreover, the TGI is 6.19 µM with MDA-N, 23.7 µM in the assay with OVCAR-3 ovarian, 27.3 µM in the assay with OVCAR-8 ovarian and 14 µM in the assay with UO-31 renal.

Consider `Cc1ccccc1OC(C)C(=O)NN1C(=O)CSC1c1ccccc1` (configuration not stated), for which the TGI in the assay with A549 NSCLC, in the assay with HCC-2998 colon, with HCT-116 colon, in the assay on IGROV1 ovarian, in the assay with MALME-3M melanoma and in the assay with MCF7 breast was greater than 100 µM in each case. For the same compound, the TGI in the assay on MDA-N, in the assay with OVCAR-3 ovarian, in the assay on OVCAR-8 ovarian and in the assay with UO-31 renal was greater than 100 µM throughout.

For the compound `Nc1c(-c2ccc(Cl)c(Cl)c2)c2ccc([N+](=O)[O-])cc2c(=O)n1-c1nc2ccccc2s1`, the TGI with A549 NSCLC was greater than 43.8 µM; in the assay with HCC-2998 colon, 92.6 µM; in the assay with HCT-116 colon, 12.9 µM; in the assay on IGROV1 ovarian, greater than 100 µM; with MALME-3M melanoma, 9.72 µM; in the assay on MCF7 breast it was 21.1 µM. The TGI in the assay on MDA-N is greater than 36 µM; in the assay on OVCAR-3 ovarian it was greater than 100 µM; with OVCAR-8 ovarian it was 17.9 µM; in the assay on UO-31 renal, 18.1 µM.

Turning to `C(=C(c1ccc(OC2CCCCO2)cc1)c1ccc(OC2CCCCO2)cc1)c1ccccc1` (configuration not stated), the TGI in the assay with A549 NSCLC turned out to be 1.69 µM; in the assay with HCC-2998 colon, 1.97 µM; in the assay on HCT-116 colon, 1.64 µM; with IGROV1 ovarian it was 1.71 µM; in the assay on MALME-3M melanoma, 2.24 µM; with MCF7 breast, 1.43 µM. Further, the TGI in the assay on MDA-N was 1.75 µM; in the assay with OVCAR-3 ovarian, 1.75 µM; in the assay with OVCAR-8 ovarian it was 2.64 µM; in the assay with UO-31 renal, 2.26 µM.

With `Cc1ccc(-c2cc(-c3ccco3)c(C#N)c(=S)n2C2OC(CO)C(O)C(O)C2O)cc1` (configuration not stated), the GI50 was 21.5 µM and 50.7 µM in the assay on A549 NSCLC; 4.91 µM and 25.3 µM in the assay with HCT-116 colon; 21.4 µM and 47.1 µM in the assay with IGROV1 ovarian; 4.73 µM and 30.8 µM in the assay with OVCAR-8 ovarian. For the same compound, the TGI was 65.8 µM and > 100 µM in the assay with A549 NSCLC; greater than 100 µM in the assay with HCC-2998 colon; 18.5 µM and > 100 µM with HCT-116 colon; 74.5 µM and > 100 µM in the assay with IGROV1 ovarian; greater than 100 µM in the assay on MALME-3M melanoma; greater than 100 µM in the assay with MCF7 breast. For the same compound, the TGI in the assay with MDA-N is greater than 100 µM; with OVCAR-3 ovarian, 55.9 µM and 90.7 µM; in the assay on OVCAR-8 ovarian, 22.6 µM and > 100 µM; in the assay on UO-31 renal, 52 µM and > 100 µM.

With `CC(=O)Nn1c(=S)[nH]c2ccccc21`, the TGI with A549 NSCLC, with HCC-2998 colon, in the assay with HCT-116 colon, with IGROV1 ovarian, in the assay on MALME-3M melanoma and in the assay with MCF7 breast was greater than 100 µM throughout. In addition, the TGI with MDA-N, in the assay with OVCAR-8 ovarian and with UO-31 renal was greater than 100 µM throughout.

For `Nc1nc2c(c(-c3cccc(Cl)c3)n1)COC/C2=C\c1cccc(Cl)c1`, the TGI with HCC-2998 colon is greater than 100 µM; with HCT-116 colon it was greater than 100 µM; with IGROV1 ovarian it was greater than 100 µM; in the assay with MALME-3M melanoma, 81.9 µM; in the assay with MCF7 breast it was greater than 100 µM; in the assay on MDA-N it was greater than 100 µM. Besides, the TGI with OVCAR-3 ovarian was greater than 100 µM; in the assay on OVCAR-8 ovarian, greater than 100 µM; in the assay on UO-31 renal, 76.3 µM.

As for `Cc1ccc(N(Cc2ccccc2)Cc2ccccc2)cc1`, the TGI in the assay on A549 NSCLC was greater than 100 µM; with HCT-116 colon, greater than 100 µM; in the assay on IGROV1 ovarian it was greater than 100 µM; in the assay with MALME-3M melanoma it was 61 µM; with MCF7 breast it was greater than 100 µM; in the assay with MDA-N it was greater than 100 µM. Moreover, the TGI in the assay with OVCAR-3 ovarian, with OVCAR-8 ovarian and in the assay with UO-31 renal was greater than 100 µM throughout.

Turning to `N=c1nnc2ccc(Cl)cc2n1O`, the TGI in the assay with HCC-2998 colon, in the assay on HCT-116 colon, in the assay on IGROV1 ovarian, in the assay on MALME-3M melanoma, in the assay with MCF7 breast and in the assay with MDA-N was greater than 100 µM each time. Besides, the TGI in the assay on OVCAR-8 ovarian was 92.4 µM; in the assay on UO-31 renal it was greater than 100 µM.

In the case of `CC1(C(=O)O)CCC2(C)CCC3(C)C(=CC(=O)C4C5(C)CCC(O)C(C)(C)C5CCC43C)C2C1` (configuration not stated), the TGI in the assay on A549 NSCLC was greater than 100 µM; in the assay on HCC-2998 colon, 87.3 µM; in the assay with HCT-116 colon it was 63 µM; in the assay with MALME-3M melanoma it was greater than 100 µM; in the assay with MCF7 breast, greater than 100 µM; with MDA-N, greater than 100 µM. The TGI is 37.4 µM with OVCAR-3 ovarian, greater than 100 µM in the assay on OVCAR-8 ovarian and 57.1 µM in the assay with UO-31 renal.

Take `Cc1cccc(Cn2c3c(c4cc(O)ccc42)C(=O)c2ccccc2C3=O)c1`: the TGI was greater than 100 µM in the assay on A549 NSCLC; greater than 100 µM in the assay on HCT-116 colon; greater than 71 µM with IGROV1 ovarian; greater than 100 µM with MALME-3M melanoma; 98.1 µM with MCF7 breast; greater than 100 µM in the assay on MDA-N. Moreover, the TGI in the assay with OVCAR-3 ovarian is greater than 31.6 µM; with OVCAR-8 ovarian it was greater than 93.2 µM; with UO-31 renal, greater than 100 µM.

Regarding `Cc1ccnc(NS(=O)(=O)c2ccc(N=[N+]=[N-])cc2)n1`, the TGI in the assay with A549 NSCLC, with HCT-116 colon, in the assay with IGROV1 ovarian, in the assay with MALME-3M melanoma, in the assay with MCF7 breast and with MDA-N was greater than 100 µM each time. Besides, the TGI in the assay with OVCAR-3 ovarian, in the assay with OVCAR-8 ovarian and with UO-31 renal was greater than 100 µM in each case.

On to `Oc1ccc(-c2nc3ccc(Br)cc3s2)cc1`, for which the TGI in the assay on A549 NSCLC was 68.9 µM; with HCT-116 colon, 64.1 µM; with IGROV1 ovarian, 33.6 µM; with MALME-3M melanoma it was 90.9 µM; with MCF7 breast, 74.5 µM; in the assay on MDA-N it was greater than 100 µM. For the same compound, the TGI was determined as 31.8 µM in the assay on OVCAR-3 ovarian, 49.3 µM in the assay with OVCAR-8 ovarian and 44.4 µM in the assay with UO-31 renal.

Turning to `C=CC1(CC/C(=C\[N+](=O)[O-])c2ccc(OC)c(OC)c2)OCC(C)(C)CO1`, the TGI was greater than 100 µM in the assay with A549 NSCLC; 46.2 µM in the assay with HCC-2998 colon; 71.9 µM with HCT-116 colon; 45.5 µM with MALME-3M melanoma; greater than 100 µM with MCF7 breast; 55.5 µM in the assay on MDA-N. Further, the figures for the TGI in the assay on OVCAR-3 ovarian, in the assay on OVCAR-8 ovarian and in the assay on UO-31 renal were 39.8 µM, 36.9 µM and 31.6 µM, respectively.

On to `COc1ccc(N=NC(=Nc2ccccc2)c2ccc(N(CCC#N)CCC#N)cc2)cc1`, for which the TGI in the assay with A549 NSCLC was greater than 100 µM; with HCC-2998 colon, greater than 100 µM; in the assay on HCT-116 colon, greater than 100 µM; with IGROV1 ovarian, 89.3 µM; in the assay on MCF7 breast, 73 µM; with MDA-N it was greater than 100 µM. Besides, the TGI is 55.2 µM in the assay on OVCAR-3 ovarian, greater than 100 µM in the assay on OVCAR-8 ovarian and greater than 100 µM in the assay on UO-31 renal.

Take `O=C(N/N=C/c1ccc(Cl)cc1)c1c(Cl)c(Cl)c(Cl)c(Cl)c1-c1nc2ccccc2[nH]1`: the TGI in the assay with A549 NSCLC, in the assay with HCC-2998 colon, in the assay with HCT-116 colon, in the assay with IGROV1 ovarian, in the assay on MALME-3M melanoma and with MCF7 breast was greater than 100 µM throughout. Also, the TGI with MDA-N, in the assay on OVCAR-3 ovarian and in the assay on UO-31 renal was greater than 100 µM each time.

With `CC1=Nc2ccccc2OC(C)=C1N=Nc1ccc2nc(C)[nH]c2c1`, the TGI in the assay with A549 NSCLC, with HCC-2998 colon, in the assay with HCT-116 colon, in the assay on IGROV1 ovarian, in the assay on MALME-3M melanoma and in the assay with MCF7 breast was greater than 100 µM in each case. Besides, the TGI in the assay on MDA-N, with OVCAR-3 ovarian and with OVCAR-8 ovarian was greater than 100 µM each time.

As for `Oc1ccc2c(c1)c1c(n2CCN2CCOCC2)-c2ccccc2CC1`, the TGI was greater than 100 µM with HCT-116 colon; 57.6 µM in the assay on IGROV1 ovarian; 53.2 µM with MALME-3M melanoma; greater than 100 µM in the assay on MCF7 breast; greater than 100 µM in the assay on MDA-N; 49.5 µM with OVCAR-3 ovarian. Moreover, the TGI with OVCAR-8 ovarian and with UO-31 renal was greater than 100 µM in each case.

On to `CCN(CC)CCNC(=O)c1cc2cc(NC(=O)c3cc4cc([N+](=O)[O-])ccc4[nH]3)ccc2[nH]1`, for which the TGI in the assay on A549 NSCLC is greater than 100 µM; with HCC-2998 colon, greater than 73.6 µM; in the assay on HCT-116 colon it was greater than 100 µM; with IGROV1 ovarian, greater than 100 µM; in the assay with MCF7 breast, greater than 100 µM; with MDA-N it was greater than 100 µM. Besides, the TGI was greater than 57 µM in the assay with OVCAR-3 ovarian, greater than 100 µM in the assay on OVCAR-8 ovarian and greater than 100 µM in the assay with UO-31 renal.

In the case of `CCOC(=O)c1c(CN2CCCC2)n(-c2ccccc2)c2cc(Br)c(O)cc12`, the TGI was 32 µM in the assay with A549 NSCLC; 30.3 µM in the assay with HCT-116 colon; 33.5 µM in the assay on IGROV1 ovarian; 35.5 µM in the assay on MALME-3M melanoma; 39.5 µM in the assay with MCF7 breast; 32.2 µM in the assay on MDA-N. The TGI in the assay with OVCAR-3 ovarian was determined as 30.3 µM; with OVCAR-8 ovarian, 49.1 µM; with UO-31 renal, 24.5 µM.
